Values of other authors as cited in patent US20010006649A1, “STABLE ORAL PHARMACEUTICAL DOSAGE FORMS” (priority 1997, published 2001).

How the values were obtained:
[1] = omeprazole solution, pH-decomposition rate profile
[2] = enteric granule formulations, alkaline stabilizers screened

pH of maximum stability [1]	stability when exposed to light	optimal pH stability [2]	SMILES
11	–	–	COc1ccc2[nH]c([S+]([O-])Cc3ncc(C)c(OC)c3C)nc2c1 (stereo not drawn) [omeprazole, 2-[2-(3,5-dimethyl-4-methoxy)-pyridylmethylsulfinyl]-(5-methoxy)-benzimidazole]
–	relatively stable	9	Cc1c(OCC(F)(F)F)ccnc1C[S+]([O-])c1nc2ccccc2[nH]1 (stereo not drawn) [Lansoprazole, 2-[[[3-methyl-4-(2,2,2-trifluroethoxy)-2-pyridyl]methyl]sulfinyl] benzimidazole]
